“Also recorded” adds a separate entry of the source.
How the values were obtained:
[1] = system: parental 2B4 NFAT-GFP reporter T cell hybridoma cells; test: Inhibition of CD3 signaling in parental (untransfected) 2B4 NFAT-GFP reporter cells; assay type: cell-based, Mouse; conditions: for inhibition of CD3-induced activation of parental reporter cells: high peptide concentrations
hLAIR-1 [2] = biological target: T1, hLAIR-1 (Homo sapiens, UniProt Q6GTX8); test: FcεRI-induced degranulation assay, hLAIR-1 transfected RBL-2H3 cells; assay type: cell-based; parameters: expressed in transfected cells; conditions: plate-bound together with TNP-BSA 0.8 μg/ml
T1 sequence (Q6GTX8 22-287): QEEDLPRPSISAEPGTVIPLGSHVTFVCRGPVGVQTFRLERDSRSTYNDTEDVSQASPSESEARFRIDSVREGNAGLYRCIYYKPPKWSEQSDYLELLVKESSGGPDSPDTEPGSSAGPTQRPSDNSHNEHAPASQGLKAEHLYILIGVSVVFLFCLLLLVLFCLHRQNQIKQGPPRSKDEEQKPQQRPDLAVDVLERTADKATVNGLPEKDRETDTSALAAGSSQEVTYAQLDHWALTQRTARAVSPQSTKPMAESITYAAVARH
Description: 96-well MAXIsorp flat-bottom plates (Nunc) were coated overnight at 4° C. with BSA, or TNP conjugated to BSA (0.8 μg/ml) and indicated amounts of synthetic trimeric peptides (100 μl/well, 2 mM acetic acid in PBS). Meanwhile, untransfected or hLAIR-1a transfected RBL-2H3 (23) cells were sensitized with IgE anti-TNP mAbs at 4° C. for 30 minutes and subsequently washed for three times in medium (AIM-V; Gibco-BRL). After washings of the plates, 5.0×10^5 cells in 70 μl medium were added to each well, and plates were incubated at 37° C. for 1 hour. Subsequently, cultures were transferred to PCR tubes, centrifuged and the supernatants were assayed for β-glucuronidase activity as described (23).

hLAIR-1-CD3ζ chimera = biological target: T2, hLAIR-1-CD3ζ chimera (Homo sapiens, UniProt Q6GTX8); test: 2B4 NFAT-GFP reporter cell assay, hLAIR-1-CD3ζ chimera; assay type: cell-based; conditions: for most potent hLAIR-1 activators in order of strength: order: III-30, II-56, II-30, III-38, II-42, III-51; for functional triggering of hLAIR-1-CD3ζ (GFP expression, in words): plate-bound ligand
T2 construct: a chimeric protein consisting of the extracellular domain of hLAIR-1 fused to the transmembrane and intracellular domain of CD3ζ; expressed in transfected cells; host or cells: Mouse 2B4 NFAT-GFP reporter T cell hybridoma, pMX puro retroviral vector
T2 sequence (Q6GTX8 22-165 limits assumed): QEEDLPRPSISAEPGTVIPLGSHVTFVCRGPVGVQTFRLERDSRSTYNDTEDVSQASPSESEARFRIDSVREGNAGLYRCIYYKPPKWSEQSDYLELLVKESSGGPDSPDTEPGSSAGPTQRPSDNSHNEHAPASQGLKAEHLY
Description: For detection of LAIR-1 ligands: 2B4 T cell hybridoma cells stably transduced with an NFAT-GFP reporter and hLAIR-1-CD3ζ were analyzed as described (11).
2B4 T cell hybridoma cells were stably transduced with an NFAT-GFP reporter construct(40) and hLAIR-1-CD3ζ(15) and analyzed as described(15, 40).

hLAIR-1 [3] = biological target: T1, hLAIR-1; test: Inhibition of CD3 signaling in hLAIR-1a transfected 2B4 NFAT-GFP reporter cells; assay type: cell-based; parameters: expressed in transfected cells; host or cells: Mouse 2B4 NFAT-GFP reporter T cell hybridoma; conditions: for inhibitory capacity at low peptide concentration (in words): 1.1 μg/ml; for inhibition of CD3-induced activation of hLAIR-1 transfected reporter cells (in words): plate-bound peptide 10, 3.3, 1.1, 0.37 μg/ml; for inhibition of CD3-induced activation of hLAIR-1 transfected reporter cells: low peptide concentration 1.1 μg/ml
Description: For detection of inhibition of mouse CD3 signaling: 2B4 T cell hybridoma cells stably transduced with an NFAT-GFP reporter and hLAIR-1a were generated. 1.25 μg/ml anti-mouse CD3 (PharMingen, San Diego, Calif.) was coated overnight at 4° C. in 96-well MAXIsorp flat-bottom plates (Nunc) together with an indicated amount of synthetic trimeric peptides in a total volume of 100 μl/well. The next day, plates were washed and 200 μl of 2.5×10^5 reporter cells/ml in medium were added to each well, and plates were incubated at 37° C. for 22 hrs and then analyzed for GFP expression by flow cytometry on a FACSCalibur (BD Biosciences). Typically, ˜90 percent of the reporters expressed GFP upon CD3 stimulation.

hLAIR-1-IgG = biological target: T3, hLAIR-1-IgG (Homo sapiens, UniProt Q6GTX8); test: BIAcore binding of hLAIR-1-IgG to immobilized triple-helical peptides; conditions: hLAIR-1-IgG 780 nM, 5 μl/min, ~250 RU peptide
T3 construct: chimeric proteins of the extracellular domain of hLAIR-1 or LAIR-2 fused to the Fc region of human IgG1 were prepared; made in house
T3 sequence (Q6GTX8 22-165 limits assumed): T2 sequence (Q6GTX8 22-165 limits assumed)
Description: (§1) Surface plasmon resonance (BIAcore) binding studies were performed using a BIAcore2000 system (BIAcore AB, Uppsala, Sweden). Approximately 2000-3000 response units (RU) of acid-soluble human collagen type I or III (Sigma) were immobilized on a CM5 biosensor chip using the amine coupling kit as instructed by the supplier. Immobilized triple-helical peptides composed of GCO(GPO)10GCOG-NH2 ((GPO)10, also known as collagen-related peptide, CRP^6) and GCP(GPP)10GCPG-NH2 ((GPP)10) were described previously^6. Approximately 250 RU (GPP)10 or (GPO)10 peptide trimers were immobilized using a cysteine coupling kit according manufacturers instructions. Analysis was performed in buffer (125 mM NaCl, 2.5 mM CaCl2, 0.005% (v/v) Tween 20, and 25 mM Hepes, (pH 7.4)) at 25° C. at a flow rate of 20 μl/min for collagen I and III interaction-studies and 5 μl/min for the immobilized peptides. […] Increasing concentrations of hLAIR-1-IgG were injected and allowed to reach an equilibrium plateau for 10 minutes. The delay between injections was 13 min, during which time the biosensor chip was flushed with buffer. In case of peptide-binding studies, biosensor chips were regenerated by injection of 0.1 M H3PO4 (2 min, 5 μl/min).

LAIR-2 fusion protein = biological target: T4, LAIR-2 fusion protein (Homo sapiens, UniProt Q6ISS4); test: BIAcore binding of LAIR-2 fusion protein to immobilized trimeric peptides; conditions: 5 μl/min, ~250 RU peptide
T4 construct: chimeric proteins of the extracellular domain of hLAIR-1 or LAIR-2 fused to the Fc region of human IgG1 were prepared; made in house
T4 sequence (Q6ISS4 22-152): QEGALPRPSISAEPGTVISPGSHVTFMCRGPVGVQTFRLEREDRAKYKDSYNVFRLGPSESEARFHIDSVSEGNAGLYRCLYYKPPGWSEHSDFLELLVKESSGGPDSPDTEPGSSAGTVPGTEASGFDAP
Description: as §1
The surface plasmon resonance binding studies were performed as described before(15). LAIR-2-IgG dimer concentration was calculated based on a theoretical mass of 82.5 kDa.

Row | Substance | inhibition of FcεRI-induced degranulation (β-glucuronidase release) (hLAIR-1 [2]) | most potent hLAIR-1 activators in order of strength (hLAIR-1-CD3ζ chimera) | inhibition of CD3-induced activation of hLAIR-1 transfected reporter cells (in words) (hLAIR-1 [3]) | further results
1 | GPC(GPP)5-GRAGEOGLQGPAGPOGEKGEOGDDGPS-(GPP)5GPC-NH2 [II-42] | – | most potent hLAIR-1 activators | – | –
2 | GPC(GPP)5-GPAGEOGREGSOGADGPOGRDGAAGVK-(GPP)5GPC-NH2 [II-47] | – | – | did not induce inhibition | –
3 | GPC(GPP)5-GTOGTDGPKGASGPAGPOGAQGPOGLQ-(GPP)5GPC-NH2 [II-30] | – | most potent hLAIR-1 activators | efficiently inhibiting | inhibition of CD3-induced activation of hLAIR-1 transfected reporter cells (hLAIR-1 [3]): ~60%
4 | GPC(GPP)5-GMOGERGGLGSOGPKGDKGEOGGOGAD-(GPP)5GPC-NH2 [III-32] | – | – | – | functional triggering of hLAIR-1-CD3ζ (GFP expression, in words) (hLAIR-1-CD3ζ chimera): potent LAIR-1 binders and activators
5 | GCP(GPP)10GCPG-NH2 [reference compound] | not | – | did not inhibit | inhibition of CD3-induced activation of parental reporter cells (in words) [1]: did not inhibit; binding of hLAIR-1-IgG to immobilized peptide (hLAIR-1-IgG): did not; interaction of LAIR-2 with immobilized trimeric peptide (LAIR-2 fusion protein): not
6 | GPC(GPP)5-GPRGRSGETGPAGPOGNOGPOGPOGPO-(GPP)5GPC-NH2 [II-56] | potent inhibitors | most potent hLAIR-1 activators | efficiently inhibiting | inhibition of CD3-induced activation of parental reporter cells [1]: ~30%; inhibitory capacity at low peptide concentration (in words) (hLAIR-1 [3]): full inhibitory capacity; also recorded: full inhibitory potential

Further lines, with some results ahead:

Row | inhibition of FcεRI-induced degranulation (β-glucuronidase release) (hLAIR-1 [2]) | most potent hLAIR-1 activators in order of strength (hLAIR-1-CD3ζ chimera) | inhibition of CD3-induced activation of hLAIR-1 transfected reporter cells (in words) (hLAIR-1 [3]) | Substance | further results
7 | potent inhibitors | most potent hLAIR-1 activators | efficiently inhibiting | GPC(GPP)5-GAOGLRGGAGPOGPEGGKGAAGPOGPO-(GPP)5GPC-NH2 [III-30] | inhibition of CD3-induced activation of parental reporter cells [1]: ~30%; inhibitory capacity at low peptide concentration (in words) (hLAIR-1 [3]): full inhibitory capacity
8 | – | most potent hLAIR-1 activators | – | GPC(GPP)5-GPAGPAGAOGPAGSRGAOGPQGPRGDK-(GPP)5GPC-NH2 [III-51] | functional triggering of hLAIR-1-CD3ζ (GFP expression, in words) (hLAIR-1-CD3ζ chimera): potent LAIR-1 binders and activators
9 | – | most potent hLAIR-1 activators | efficiently inhibiting | GPC(GPP)5-GEGGPOGVAGPOGGSGPAGPOGPQGVK-(GPP)5GPC-NH2 [III-38] | inhibition of CD3-induced activation of hLAIR-1 transfected reporter cells (hLAIR-1 [3]): ~60%
